The values that follow come from PMC10388363, “Novel 1,4-Dihydropyridines as Specific Binders and Activators of SIRT3 Impair Cell Viability and Clonogenicity and Downregulate Hypoxia-Induced Targets in Cancer Cells” (Journal of Medicinal Chemistry, 2023).

The test system of test [1] is CAL-62 cells. As to the kind of experiment: Cell viability / cell death, trypan blue exclusion, CAL-62. The class given is cell-based. The settings on record: for reduction of cell viability: CAL-62, 50 μM; for EC50: CAL-62, 48 h, read-out: EC50 cell death induction. The procedure: Afterward, the selected compounds 3a–d were assayed at 50 μM for 24 and 48 h in CAL-62 and MDA-MB-231 cells to assess their ability to impair the cell viability and colony formation in either normoxia or hypoxia-induced condition, the latter obtained by adding a 200 μM cobalt chloride solution, as described in previous reports[69] (Figure 8). Most cancer cells, mainly solid types, are known to have an altered metabolism due to hypoxia, a non-physiological level of oxygen tension, which contributes to therapy resistance by causing cellular quiescence.[70] Moreover, hypoxic cancer cells can induce several factors that lead to cell proliferation and colony formation.[71]
Breast cancer cell line MDA-MB-231, anaplastic thyroid cancer cell line CAL-62 and human keratinocytes HaCaT were purchased from ATCC and were cultured in RPMI 1640 medium (R0883 Sigma Aldrich-MERCK) (MDA-MB-231 and CAL-62) or DMEM medium (11965092, Gibco) supplemented with 10% fetal bovine serum (Sigma-Aldrich-MERCK, F9665), 2 mM glutamine (G7513; Sigma-Aldrich-MERCK), 100 units/mL penicillin and 0.1 mg/mL streptomycin (P0781; Sigma-Aldrich-MERCK). Adherent cells were detached by Trypsin–EDTA solution (TA049; Sigma-Aldrich-MERCK). Cells were maintained at 37 °C in humidified incubator with 5% CO2. Cells were treated with […] (CoCl2) (Merck; C8661) dissolved in distilled, sterile water for 24 h to induce hypoxia (200 μM). Hypoxic and normoxic cells were also treated with 10/50 μM of the indicated compounds (dissolved in DMSO) for 48 h, maintaining the CoCl2 in the culture medium for hypoxic conditions. SIRT3 inhibitor 3-TYP was dissolved in DMSO and added to a final concentration of 1 μM for 24 and/or 48 h.
Cell viability was assessed by the trypan blue exclusion assay. At the end of treatments, cells were harvested and stained with 0,4% trypan blue (Merck; T8154). The cell suspension was applied to a hemocytometer and counted with phase contrast microscopy (NIKON EclipseTE2000U, Nikon Netherlands, Amsterdam, The Netherlands).

Test [2] has as its system MDA-MB-231 cells. As to the kind of experiment: Scratch assay, MDA-MB-231 cell migration. Particulars: 50 μM, 48 h. The class given is cell-based, human. The procedure:
Next, a scratch assay on MDA-MB-231 cells after treatment with 3c and 3d at 50 μM for 48 h was performed to assess their effect on cell migration (Figure 14).
Cell lines were maintained in culture medium (as above) until reaching 100% confluence, then shifted to a serum-depleted culture medium to inhibit cell proliferation, as described in Magistri et al.;[83] a scratch wound was created on the cell layer using a micropipette tip. Micrographs were taken at 0 and 48 h after the scratch. Cell-devoid areas at 0 and 48 h after the scratch were quantified through the Fiji ImageJ image processing package.

Test [3] deals with SNAIL, SLUG, ZEB1, COL1A2, MMP2/9 expression in MDA-MB-231. As to the kind of experiment: qRT-PCR of EMT master regulator and ECM genes in MDA-MB-231 cells. In kind it is cell-based, human. The settings on record: 48 h; for EMT master regulator and ECM gene expression: MDA-MB-231, 10 μM; for SLUG expression / SNAIL, ZEB1, COLLAGEN, and MMP2/9 gene expression / SLUG gene expression / SNAIL, COL1A2, and MMP2/9 expression levels: MDA-MB-231, 50 μM; for SLUG expression / SNAIL, ZEB1, COLLAGEN, and MMP2/9 gene expression: hypoxic conditions (CoCl2); for SLUG gene expression / SNAIL, COL1A2, and MMP2/9 expression levels: normoxia. The procedure: Afterward, based on the double localization described for SIRT3, which was primarily found into the mitochondria but translocated into the nucleus in stressful conditions,[75] the effects of SIRT3 activators on gene expression regulation were evaluated in MDA-MB-231 cells.
Considering the previously described involvement of hypoxia in EMT induction,[78] we extended our biological study by analyzing the effects of SIRT3 activators on gene expression regulation under hypoxic conditions. Hypoxia induction of EMT was verified by gene expression analysis (upregulation of SNAIL, ZEB1, COLLAGEN, MMPs, and SLUG) after 72 h of treatment with CoCl2. In these experimental conditions, we verified the effectiveness of the previously tested SIRT3 activators 3c and 3d (50 μM, 48 h) in reducing EMT genes expression.
RNAs were extracted by ReliaPrep RNA tissue miniprep system (Promega, Madison, WI, USA) and reverse transcribed with an iScriptTM c-DNA synthesis kit (Bio-Rad Laboratories Inc., Hercules, CA, USA). Real-time (RT-qPCR) analyses were performed on cDNAs that were amplified by the qPCR reaction using GoTaq qPCR Master Mix (Promega, Madison, WI, USA). Relative amounts obtained with the 2(−ΔCt) method were normalized with respect to the housekeeping gene human L32. Statistical analysis was performed with GraphPad Prism 8, and differences in gene expression were considered significant with a p-value <0.05.
A general note: In qPCR the cycle at which signal appears reflects the starting amount.

Where two headings read alike, the source gives them in different places.

As to `CCOC(=O)C1=CN(C(=O)c2cccc(OC)c2)C=C(C(=O)OCC)C1c1ccccc1` [Compound 3a, Diethyl 1-(3-methoxybenzoyl)-4-phenyl-1,4-dihydropyridine-3,5-dicarboxylate], the “reduction of cell viability” value in test [1] (24 h, normoxia) came to 37%; in test [1] (48 h, hypoxia (200 μM CoCl2)) it was 59%; in test [1] (48 h, normoxia), 64%.

As for `CCOC(=O)C1=CN(C(=O)c2ccc(OC)c(OC)c2)C=C(C(=O)OCC)C1c1ccccc1` [Compound 3c, Diethyl 1-(3,4-dimethoxybenzoyl)-4-phenyl-1,4-dihydropyridine-3,5-dicarboxylate], in test [2], the MDA-MB-231 cell migration entry was “nicely reduce”. In addition, in test [3], the “EMT master regulator and ECM gene expression” value was “effective even at 10 μM”; the SLUG expression result was “affected”; the “SNAIL, ZEB1, COLLAGEN, and MMP2/9 gene expression” value is on record as “impair”; the SLUG gene expression entry is given as “not significantly affected”. For the same molecule, the “SNAIL, COL1A2, and MMP2/9 expression levels” value in test [3] is given as “reduce”.

By EC50 is commonly meant the concentration at which the effect is half-maximal. As a reminder, the viability is the share of living cells, or the viability signal relative to a control. Consider `CCOC(=O)C1=CN(C(=O)c2cc(OC)cc(OC)c2)C=C(C(=O)OCC)C1c1ccccc1` [Compound 3d, Diethyl 1-(3,5-dimethoxybenzoyl)-4-phenyl-1,4-dihydropyridine-3,5-dicarboxylate], for which, in test [2], the MDA-MB-231 cell migration entry is on record as “nicely reduce” and the “impairment of MDA-MB-231 migration rate” value was “over 75%”. Besides, the “Cell death (%) T48” value in test [1] (CAL-62, 10 μM, 48 h) is reported as 36,6%. In test [1] (24 h, normoxia), the “reduction of cell viability” value came out at 55%. Moreover, in test [1] (48 h, hypoxia (200 μM CoCl2)), the “reduction of cell viability” value was determined as 80%. The “reduction of cell viability” value in test [1] (48 h, normoxia) is 90%. In test [1] (Homo sapiens, hypoxia), the EC50 is approximately 3.5 µM. The EC50 in test [1] (Homo sapiens, normoxia) is approximately 16.7 µM. Further, the viability at 10 µM in test [1] (Homo sapiens, CAL-62, 10 μM, 24 h, read-out: Cell viability (%) T24) amounted to 79.6%. Further, in test [3], the “EMT master regulator and ECM gene expression” value is on record as “effective even at 10 μM”; the SLUG expression entry is reported as “affected”; the “SNAIL, ZEB1, COLLAGEN, and MMP2/9 gene expression” value is given as “impair”; the SLUG gene expression entry was “not significantly affected”. In addition, the “SNAIL, COL1A2, and MMP2/9 expression levels” value in test [3] was “reduce”.
